# In US20100029577A1, “Chiral separation, characterization and biological action of optically active isomers of digoxin” (priority 2008, published 2010):
# Experiments:
# [1] = test system: serum protein; assay: Free fraction of digitoxin by centrifugation; assay type: in vitro ADME
# Protocol: Free fraction of digitoxin increased with centrifugation time from 18% at 10 minutes to 37% at 80 minutes (500 g) without reaching plateau levels.
# [2] = test system: serum protein; assay: Digitoxin serum protein binding by equilibrium dialysis; assay type: in vitro ADME, patients
# Protocol: Digitoxin protein binding was dependent on albumin content. […] Chamber equilibrium dialysis gave similar results. […] (mean, 96.7%) and at 37° C. (mean, 96.9%). Digoxin isolates will be used under similar conditions.
# [3] = test system: gram-negative and gram-positive bacteria; settings: against both gram-negative and gram-positive bacteria; cited from earlier work
# [4] = test system: digitoxin serum protein binding; assay: In vitro drug studies: ability to induce changes in digitoxin serum protein binding; settings: procainamide 5 mg/ml, phenytoin 50 mg/ml, heparin 5 IU/ml, rifampicillin 4.5 μg/ml
# Protocol: Digoxin isolates will be used under similar conditions.
# The ability to induce changes in digitoxin serum protein binding was tested for the following drugs: procainamide (5 mg/ml), phenytoin (50 mg/ml), heparin (5 IU/ml), and rifampicillin (4.5 μg/ml). […] Identical procedures will be used for digoxin isolates.
# [5] = test system: AV node conduction and cardiac contractibility; assay: Effect on PR interval (AV node conduction) and cardiac contractibility in anesthetized guinea pig, continuous IV infusion; assay type: in vivo; settings: infused at 6 μg/kg/min continuously IV
# Protocol: The guinea pig or rat is anesthetized with pentobarbital at 40 mg/kg IP, then-connected to an EKG recorder. The animal is then placed on a small animal respirator. Aseptic surgical instruments are soaked in ethanol and then flamed. An incision is made in the chest wall to open the chest. A Walton Brody stain gauge arch is sutured to the right ventricle to measure contractile changes. The refractoriness of the AV node is determined by measuring the PR-interval on the surface EKG. Graphs can be created from the data displaying the dose related change in the PR interval to the dose related contractile augmentation. Digoxin or chiral isolates are infused through the jugular vein at concentrations (from 0.1 μM and then to 10 μM) at a constant rate by infusion pump, to determine the differential effects on the AV node and cardiac contractibility. The infusions are continued to a 50% level augmentation in contractibility or the development of ventricular tachycardia. To maintain a consistent level of anesthesia, pentobarbital 20 mg/kg IP or 10 mg/kg IV for more immediate action at 30-minute intervals may be administered.
# The effect of digoxin and one of the two chiral isomers was evaluated in the guinea pig. Guinea pigs were anesthetized with pentobarbital. […] An EKG was continuously recorded. Conduction through the AV node was determined by measuring the PR interval on the surface EKG. […]
molecule,measurement,setting,value
C[C@H]1O[C@@H](O[C@H]2[C@@H](O)C[C@H](O[C@H]3[C@@H](O)C[C@H](O[C@H]4CC[C@@]5(C)[C@H](CC[C@@H]6[C@@H]5CC[C@]5(C)[C@@H](C7=CC(=O)OC7)CC[C@]65O)C4)O[C@@H]3C)O[C@@H]2C)C[C@H](O)[C@@H]1O [digitoxin],free fraction,"[1]; centrifugation 10 minutes, 500 g",18%
same,free fraction,"[1]; centrifugation 60 minutes, 135 g",5.9%
same,free fraction,"[1]; centrifugation 60 minutes, 560 g",15.7%
same,free fraction,"[1]; centrifugation 80 minutes, 500 g",37%
same,digitoxin binding (mean),[2]; sera from 9 patients dialyzed at 20° C.,96.7%
same,digitoxin binding (mean),[2]; sera from 9 patients dialyzed at 37° C.,96.9%
"CC1COc2c(N3CCN(C)CC3)c(F)cc3c(=O)c(C(=O)O)cn1c23 (single isomer, unassigned; (-)) [(−)-Ofloxacin]",times more active as the racemate,[3],8-128 times
heparin,changes in the serum protein binding of digitoxin,[4],None of these induced significant changes
rifampicillin,changes in the serum protein binding of digitoxin,[4],None of these induced significant changes
CC1O[C@@H](O[C@H]2C(O)C[C@H](O[C@H]3C(O)C[C@H](OC4CC[C@@]5(C)[C@H](CC[C@@H]6[C@@H]5C[C@@H](O)[C@]5(C)[C@@H](C7=CC(=O)OC7)CC[C@]65O)C4)OC3C)OC2C)CC(O)[C@@H]1O (stereo partly shown) [Digoxin],change in PR interval on the surface EKG,[5],progressive increase
same,change in cardiac contractibility as measured by the strain-gauge arch,[5],increase
O=C1NC(=O)C(c2ccccc2)(c2ccccc2)N1 [phenytoin],changes in the serum protein binding of digitoxin,[4],None of these induced significant changes
CCN(CC)CCNC(=O)c1ccc(N)cc1 [procainamide],changes in the serum protein binding of digitoxin,[4],None of these induced significant changes
